Reference: patent US20060166999A1, “Use of microsomal triglyceride transfer protein (MTP) inhibitors for reducing the number of postprandial triglyceride-rich lipoprotein particles (PPTRL)” (Bayer Aktiengesellschaft, priority 2000, published 2006)

Legend:
[1] = test system: ApoE-knockout mice; experiment: Long-term feeding experiment with ApoE-knockout mice; type: in vivo; conditions: ApoE-knockout mice on fat-containing Western diet; 5 ppm with the feed; after 13 months; over half of the untreated mice were dead
Experimental: Long-Term Feeding Experiment with ApoE-Knockout Mice
ApoE-knockout mice received a fat-containing diet (0.15% cholesterol, 21.4% crude fat, 19% casein; “Western diet”). The compound of Example 48 was administered in a proportion of 5 ppm with the feed to the treated group, while the control group received the food without active ingredient. After 13 months, over half of the untreated mice were dead, whereas 23 of 25 animals in the treated group were still alive.
It is known from the literature that the ApoE-knockout mice used die from myocardial infarctions and manifestations of neuronal degeneration [Caligiuri, G., et al., Proc. Natl. Acad. Sci. USA, 96, 6920-6924 (1999); Walker, L. C. Am. J. Pathol., 151, (5), 1371-1377 81997)].

[2] = test system: atherosclerotic plaques; conditions: mouse test; Zaiss et al., Circulation 100 (18, Suppl. I):258 Abstr. 1343 (1999); cited from earlier work

Compound	animals in the treated group still alive [1]	formation of atherosclerotic plaques [2]
Cc1cc(C)c2c3ccccc3n(Cc3ccc([C@@H](C(=O)N[C@@H](CO)c4ccccc4)C4CCCC4)cc3)c2n1 [Example 48, (2S)-2-Cyclopentyl-2-[4-(2,4-dimethyl-pyrido[2,3-b]indol-9-ylmethyl)-phenyl]-N-(2-(1R)-hydroxy-1-phenyl-ethyl)-acetamide]	23 of 25	–
implitapide	–	prevents the formation of atherosclerotic plaques
